Source: paper PMC9154192 (PLoS Biology, 2022)
Like-named read-outs stand apart in the source and are kept apart here.

Type: in vivo, SD rats
Procedure: A subchronic toxicity study was performed for PP2S. Female and male rats were divided into a control group (0 mg/kg/day, n = 15), a low-dose group (167 mg/kg/day, n = 10), a medium-dose group (500 mg/kg/day, n = 10), and a high-dose group (1,500 mg/kg/day, n = 15), respectively. Thus, there were a total of 8 groups. The drug was administered by oral gavage at 10 mL/kg body weight daily for 4 weeks. Five animals each in the control and high-dose groups continued their treatments for 2 more weeks. Clinical symptoms were observed, and body weight was measured during the test period for a total of 6 weeks; 0.5% methyl cellulose 1,500 cP (Sigma, USA) in water for injection (JW Pharmaceutical, Korea) was used as a vehicle. Control animals were treated with only the same volume of the vehicle.
Histopathological examination was performed while performing a 4-week repeated oral toxicity study for PP2S. Organs and tissues from all animals subjected to autopsy were removed and fixed in 10% neutral buffered formalin. Among them, testes, eyeballs and optic nerve were fixed in Davidson's fixative and then in 10% neutral buffered formalin. For organs/tissues subjected to histopathological examination, specimens were prepared according to the histopathological specimen preparation SOP. For histopathological examination, organs and tissues of all subjects in the control group and the high-dose group, and macroscopically observed subjects in the low-dose group were examined. […] In addition, all other changes observed in histopathological examination were judged to be spontaneous or accidental. Those not specifically observed for all groups by organ were marked with a 'dash' symbol. Grade 1, minimal; Grade 2, slight; Grade 3, moderate; Grade 4, severe.

[1] = female, G4 1,500 mg/kg, recovery period, n=5
[2] = male, G2 167 mg/kg, dosing period, n=10
[3] = male, G3 500 mg/kg, dosing period, n=10
[4] = male, G4 1,500 mg/kg, dosing period, n=10
[5] = male, G4 1,500 mg/kg, recovery period, n=5

CCCCOc1ccc2cc(CN3C(=O)CC[C@H]3C(=O)OC)c3cc(OC)c(OC)cc3c2c1 [PP2S, Methyl (S)-1-((3-butoxy-6,7-dimethoxyphenanthren-9-yl)methyl)-5-oxopyrrolidine-2-carboxylate]
Kidney: Mineralization, medulla, Grade 1, no. of animals [1]: 0 | Liver: Extramedullary hematopoiesis, Grade 1, no. of animals [1]: 0 | Liver: Fatty change, sporadic/periportal, Grade 1, no. of animals [1]: 2 | Liver: Fatty change, sporadic/periportal, Grade 2, no. of animals [1]: 0 | Liver: Infiltrate, mononuclear cell, focal, Grade 1, no. of animals [1]: 4 | Liver: Infiltrate, mononuclear cell, focal, Grade 2, no. of animals [1]: 0 | Lung including bronchi: Alveolar macrophage aggregation, focal, Grade 1, no. of animals [1]: 0 | Lung including bronchi: Infiltrate, mononuclear cell, alveolar, focal, Grade 1, no. of animals [1]: 1 | Pituitary gland: Cyst, pars nervosa, Presence, no. of animals [1]: 0 | Prostate: Infiltrate, inflammatory cell, interstitium, Grade 1, no. of animals [1]: 0 | Salivary gland (parotid): Focus, hypertrophic, basophilic, focal, Grade 1, no. of animals [1]: 0 | Spleen: Pigmentation, Grade 1, no. of animals [1]: 5 | Submandibular lymph node: Increased, plasma cell, Grade 2, no. of animals [1]: 0 | Thyroid gland: Ectopic thymus, Presence, no. of animals [1]: 1 | Thyroid gland: Ultimobranchial cyst, Presence, no. of animals [1]: 2 | Adrenal gland: Vacuolation, cortical, diffuse, Grade 1, no. of animals [2]: 0 | Adrenal gland: Vacuolation, cortical, diffuse, Grade 2, no. of animals [2]: 0 | Epididymis: Infiltrate, inflammatory cell, interstitum, Grade 1, no. of animals [2]: 0 | Eye: Dysplasia, retina, focal, Grade 1, no. of animals [2]: 0 | Harderian gland: Infiltrate, inflammatory cell, focal, Grade 1, no. of animals [2]: 0 | Kidney: Basophilia, tubule, cortex, Grade 1, no. of animals [2]: 0 | Kidney: Cast, hyaline, cortex, Grade 1, no. of animals [2]: 0 | Kidney: Hydronephrosis, unilateral, Grade 3, no. of animals [2]: 0 | Kidney: Infiltrate, inflammatory cell, interstitium, Grade 1, no. of animals [2]: 0 | Kidney: Infiltrate, inflammatory cell, interstitium, Grade 2, no. of animals [2]: 0 | Kidney: Mineralization, cortex, Grade 1, no. of animals [2]: 0 | Kidney: Mineralization, corticomedullary junction, Grade 1, no. of animals [2]: 0 | Kidney: Mineralization, medulla, Grade 1, no. of animals [2]: 0 | Liver: Extramedullary hematopoiesis, Grade 1, no. of animals [2]: 0 | Liver: Fatty change, sporadic/periportal, Grade 1, no. of animals [2]: 0 | Liver: Fatty change, sporadic/periportal, Grade 2, no. of animals [2]: 0 | Liver: Infiltrate, mononuclear cell, focal, Grade 1, no. of animals [2]: 0 | Liver: Infiltrate, mononuclear cell, focal, Grade 2, no. of animals [2]: 0 | Lung including bronchi: Alveolar macrophage aggregation, focal, Grade 1, no. of animals [2]: 0 | Lung including bronchi: Infiltrate, mononuclear cell, alveolar, focal, Grade 1, no. of animals [2]: 0 | Pituitary gland: Cyst, pars nervosa, Presence, no. of animals [2]: 0 | Prostate: Infiltrate, inflammatory cell, interstitium, Grade 1, no. of animals [2]: 0 | Salivary gland (parotid): Focus, hypertrophic, basophilic, focal, Grade 1, no. of animals [2]: 0 | Spleen: Pigmentation, Grade 1, no. of animals [2]: 0 | Submandibular lymph node: Increased, plasma cell, Grade 2, no. of animals [2]: 1 | Thyroid gland: Ectopic thymus, Presence, no. of animals [2]: 0 | Thyroid gland: Ultimobranchial cyst, Presence, no. of animals [2]: 0 | Adrenal gland: Vacuolation, cortical, diffuse, Grade 1, no. of animals [3]: 0 | Adrenal gland: Vacuolation, cortical, diffuse, Grade 2, no. of animals [3]: 0 | Epididymis: Infiltrate, inflammatory cell, interstitum, Grade 1, no. of animals [3]: 0 | Eye: Dysplasia, retina, focal, Grade 1, no. of animals [3]: 0 | Harderian gland: Infiltrate, inflammatory cell, focal, Grade 1, no. of animals [3]: 0 | Kidney: Basophilia, tubule, cortex, Grade 1, no. of animals [3]: 0 | Kidney: Cast, hyaline, cortex, Grade 1, no. of animals [3]: 0 | Kidney: Hydronephrosis, unilateral, Grade 3, no. of animals [3]: 0 | Kidney: Infiltrate, inflammatory cell, interstitium, Grade 1, no. of animals [3]: 0 | Kidney: Infiltrate, inflammatory cell, interstitium, Grade 2, no. of animals [3]: 0 | Kidney: Mineralization, cortex, Grade 1, no. of animals [3]: 0 | Kidney: Mineralization, corticomedullary junction, Grade 1, no. of animals [3]: 0 | Kidney: Mineralization, medulla, Grade 1, no. of animals [3]: 0 | Liver: Extramedullary hematopoiesis, Grade 1, no. of animals [3]: 0 | Liver: Fatty change, sporadic/periportal, Grade 1, no. of animals [3]: 0 | Liver: Fatty change, sporadic/periportal, Grade 2, no. of animals [3]: 0 | Liver: Infiltrate, mononuclear cell, focal, Grade 1, no. of animals [3]: 0 | Liver: Infiltrate, mononuclear cell, focal, Grade 2, no. of animals [3]: 0 | Lung including bronchi: Alveolar macrophage aggregation, focal, Grade 1, no. of animals [3]: 0 | Lung including bronchi: Infiltrate, mononuclear cell, alveolar, focal, Grade 1, no. of animals [3]: 0 | Pituitary gland: Cyst, pars nervosa, Presence, no. of animals [3]: 0 | Prostate: Infiltrate, inflammatory cell, interstitium, Grade 1, no. of animals [3]: 0 | Salivary gland (parotid): Focus, hypertrophic, basophilic, focal, Grade 1, no. of animals [3]: 0 | Spleen: Pigmentation, Grade 1, no. of animals [3]: 0 | Submandibular lymph node: Increased, plasma cell, Grade 2, no. of animals [3]: 0 | Thyroid gland: Ectopic thymus, Presence, no. of animals [3]: 0 | Thyroid gland: Ultimobranchial cyst, Presence, no. of animals [3]: 0 | Adrenal gland: Vacuolation, cortical, diffuse, Grade 1, no. of animals [4]: 3 | Adrenal gland: Vacuolation, cortical, diffuse, Grade 2, no. of animals [4]: 1 | Epididymis: Infiltrate, inflammatory cell, interstitum, Grade 1, no. of animals [4]: 1 | Eye: Dysplasia, retina, focal, Grade 1, no. of animals [4]: 0 | Harderian gland: Infiltrate, inflammatory cell, focal, Grade 1, no. of animals [4]: 1 | Kidney: Basophilia, tubule, cortex, Grade 1, no. of animals [4]: 3 | Kidney: Cast, hyaline, cortex, Grade 1, no. of animals [4]: 1 | Kidney: Hydronephrosis, unilateral, Grade 3, no. of animals [4]: 0 | Kidney: Infiltrate, inflammatory cell, interstitium, Grade 1, no. of animals [4]: 7 | Kidney: Infiltrate, inflammatory cell, interstitium, Grade 2, no. of animals [4]: 1 | Kidney: Mineralization, cortex, Grade 1, no. of animals [4]: 0 | Kidney: Mineralization, corticomedullary junction, Grade 1, no. of animals [4]: 0 | Kidney: Mineralization, medulla, Grade 1, no. of animals [4]: 0 | Liver: Extramedullary hematopoiesis, Grade 1, no. of animals [4]: 1 | Liver: Fatty change, sporadic/periportal, Grade 1, no. of animals [4]: 4 | Liver: Fatty change, sporadic/periportal, Grade 2, no. of animals [4]: 0 | Liver: Infiltrate, mononuclear cell, focal, Grade 1, no. of animals [4]: 4 | Liver: Infiltrate, mononuclear cell, focal, Grade 2, no. of animals [4]: 0 | Lung including bronchi: Alveolar macrophage aggregation, focal, Grade 1, no. of animals [4]: 0 | Lung including bronchi: Infiltrate, mononuclear cell, alveolar, focal, Grade 1, no. of animals [4]: 2 | Pituitary gland: Cyst, pars nervosa, Presence, no. of animals [4]: 1 | Prostate: Infiltrate, inflammatory cell, interstitium, Grade 1, no. of animals [4]: 2 | Salivary gland (parotid): Focus, hypertrophic, basophilic, focal, Grade 1, no. of animals [4]: 0 | Spleen: Pigmentation, Grade 1, no. of animals [4]: 0 | Submandibular lymph node: Increased, plasma cell, Grade 2, no. of animals [4]: 0 | Thyroid gland: Ectopic thymus, Presence, no. of animals [4]: 0 | Thyroid gland: Ultimobranchial cyst, Presence, no. of animals [4]: 2 | Adrenal gland: Vacuolation, cortical, diffuse, Grade 1, no. of animals [5]: 3 | Adrenal gland: Vacuolation, cortical, diffuse, Grade 2, no. of animals [5]: 0 | Epididymis: Infiltrate, inflammatory cell, interstitum, Grade 1, no. of animals [5]: 0 | Eye: Dysplasia, retina, focal, Grade 1, no. of animals [5]: 0 | Harderian gland: Infiltrate, inflammatory cell, focal, Grade 1, no. of animals [5]: 0 | Kidney: Basophilia, tubule, cortex, Grade 1, no. of animals [5]: 1 | Kidney: Cast, hyaline, cortex, Grade 1, no. of animals [5]: 3 | Kidney: Hydronephrosis, unilateral, Grade 3, no. of animals [5]: 0 | Kidney: Infiltrate, inflammatory cell, interstitium, Grade 1, no. of animals [5]: 0 | Kidney: Infiltrate, inflammatory cell, interstitium, Grade 2, no. of animals [5]: 0 | Kidney: Mineralization, cortex, Grade 1, no. of animals [5]: 0 | Kidney: Mineralization, corticomedullary junction, Grade 1, no. of animals [5]: 0 | Kidney: Mineralization, medulla, Grade 1, no. of animals [5]: 0 | Liver: Extramedullary hematopoiesis, Grade 1, no. of animals [5]: 1 | Liver: Fatty change, sporadic/periportal, Grade 1, no. of animals [5]: 2 | Liver: Fatty change, sporadic/periportal, Grade 2, no. of animals [5]: 0 | Liver: Infiltrate, mononuclear cell, focal, Grade 1, no. of animals [5]: 3 | Liver: Infiltrate, mononuclear cell, focal, Grade 2, no. of animals [5]: 0 | Lung including bronchi: Alveolar macrophage aggregation, focal, Grade 1, no. of animals [5]: 0 | Lung including bronchi: Infiltrate, mononuclear cell, alveolar, focal, Grade 1, no. of animals [5]: 0 | Pituitary gland: Cyst, pars nervosa, Presence, no. of animals [5]: 0 | Prostate: Infiltrate, inflammatory cell, interstitium, Grade 1, no. of animals [5]: 1 | Salivary gland (parotid): Focus, hypertrophic, basophilic, focal, Grade 1, no. of animals [5]: 0 | Spleen: Pigmentation, Grade 1, no. of animals [5]: 3 | Submandibular lymph node: Increased, plasma cell, Grade 2, no. of animals [5]: 0 | Thyroid gland: Ectopic thymus, Presence, no. of animals [5]: 0 | Thyroid gland: Ultimobranchial cyst, Presence, no. of animals [5]: 1
